Test results as given in US20070232575A1, “Treatment of Pulmonary Artery Hypertension with Dhea, Dheas, Dhea Analogs, or Dhea Derivatives” (priority 2004, published 2007).
Entries after “also recorded” stand apart in the source; their conditions may differ.

Tests used:
[1] = test system: chronic hypoxic-pulmonary artery hypertension (CH-PAH); experiment: Mean pulmonary arterial pressure (PAP) in chronic hypoxic (CH-PAH) rat model; assay type: in vivo
Protocol: To study the mechanisms of PAH and its possible treatments, an animal model was utilized. The placement of rats in a hypobaric chamber for 7 to 21 days induced chronic hypoxia, resulting in CH-PAH, a useful model system for studying mammalian PAH.
The rat model experiments were performed as follows. Adult male Wistar rats (220-240 g) were randomized into five groups. […] Intravascular administration was performed via the catheter inserted in the right jugular vein.

[2] = test system: IPA wall; experiment: CH-induced intrapulmonary artery (IPA) wall remodeling, media layer thickness; assay type: in vivo, rat
Protocol: Lung sections were formalin-fixed in preparation for histology studies. PA external diameter (PAED), PA internal diameter (PAID), and percentage vessel wall thickness (PAED−PAID)/PAED×100) were measured in small- and medium-sized PAs (80-150 μm). Each group was comprised of four rats, and 10 measures were made per rat by an investigator blinded to the treatment groups.
CH induces remodeling of the intrapulmonary artery (IPA) in the rat model of CH-PAH. To examine the changes in the IPA wall upon CH exposure, the following method was performed. Isometric contractions were measured in rings from IPAs that were mounted in vertical 5-ml organ baths of a computerized isolated organ bath system (IOX, EMKA Technologies, Paris), as described in Bonnet, S., et al. (2001, Am. J. Physiol. 281, L183-L192, which is incorporated by reference herein in its entirety). Baths were filled with Krebs-Henseleit solution (composition in mM: 118.4 NaCl/4.7 KCl/2.5 CaCl2/1.2 MgSO4/1.2 KH2PO4/25 NaHCO3/11.1 D-glucose, pH 7.4). The baths were maintained at 37° C. and bubbled with a 95% O2/5% CO2 gas mixture. The tissues were set at optimal length by equilibration against a passive load of 10 mN for rings obtained from normoxic rats and 20 mN for rings obtained from hypoxic rats (Jones, J. E., et al. (2002) Am. J. Physiol. 283, H364-H371, which is incorporated by reference herein in its entirety). A cumulative concentration-response curve was then constructed. A concentration increment was made once the maximal contractile effect of the preceding concentration had been recorded.

[3] = test system: PASMCs; experiment: Resting [Ca2+]i of PASMCs from orally DHEA-treated CH rats (indo-1); assay type: in vivo, rat; settings: for effect on [Ca2+]i of PASMCs: CH rats
Protocol: (§1) The heart and lungs were removed and intrapulmonary arteries (IPAs) (150-300 μm of internal diameter) were then dissected. The adventitial and intimal layers were removed. For contraction experiments, rings (3 mm in length) were prepared.
As mentioned earlier, Ca^2+ is thought to play an important role in the response to chronic hypoxia. To measure the effects of DHEA on [Ca^2+]i of individual PASMCs, a [Ca^2+]i-sensitive fluorophore, indo-1 (Calbiochem, San Diego, Calif.), was employed. PASMCs were loaded with indo-1 by incubation in physiological salt solution (139.6 mM NaCl/6.2 mM KCl/1 mM MgCl2/12.1 mM glucose/10 mM Hepes) containing 1 μM indo-1 penta-acetoxymethyl ester (Indo-1 a.m.) for 25 minutes at room temperature. The recording system included a Nikon Diaphot inverted microscope fitted with epifluorescence. The studied cell was illuminated at 360 nm and counted simultaneously at 405 nm and 480 nm by two photomultipliers (P100, Nikon). […] [Ca^2+]i was estimated from the 405:480 ratio (Bonnet, S., et al. (2001) Am. J. Physiol. 281, L193-L201).

[4] = test system: PASMCs from CH rats; experiment: In vitro DHEA treatment of PASMCs, resting [Ca2+]i, with K channel blockers and pathway inhibitors; assay type: cell-based, rat
Protocol: as §1
As mentioned earlier, Ca^2+ is thought to play an important role in the response to chronic hypoxia. To measure the effects of DHEA on [Ca^2+]i of individual PASMCs, a [Ca^2+]i-sensitive fluorophore, indo-1 (Calbiochem, San Diego, Calif.), was employed. […] The recording system included a Nikon Diaphot inverted microscope fitted with epifluorescence.
To further examine how DHEA functions to decrease the [Ca^2+]i in PASMCs, the following experiment was performed.

[5] = molecular target: T1, BKCa (Homo sapiens, UniProt Q12791); settings: hypoxic human pulmonary cells, Peng et al. 1999; cited from earlier work
T1 construct: host or cells: hypoxic human pulmonary cells
T1 sequence (Q12791 whole entry): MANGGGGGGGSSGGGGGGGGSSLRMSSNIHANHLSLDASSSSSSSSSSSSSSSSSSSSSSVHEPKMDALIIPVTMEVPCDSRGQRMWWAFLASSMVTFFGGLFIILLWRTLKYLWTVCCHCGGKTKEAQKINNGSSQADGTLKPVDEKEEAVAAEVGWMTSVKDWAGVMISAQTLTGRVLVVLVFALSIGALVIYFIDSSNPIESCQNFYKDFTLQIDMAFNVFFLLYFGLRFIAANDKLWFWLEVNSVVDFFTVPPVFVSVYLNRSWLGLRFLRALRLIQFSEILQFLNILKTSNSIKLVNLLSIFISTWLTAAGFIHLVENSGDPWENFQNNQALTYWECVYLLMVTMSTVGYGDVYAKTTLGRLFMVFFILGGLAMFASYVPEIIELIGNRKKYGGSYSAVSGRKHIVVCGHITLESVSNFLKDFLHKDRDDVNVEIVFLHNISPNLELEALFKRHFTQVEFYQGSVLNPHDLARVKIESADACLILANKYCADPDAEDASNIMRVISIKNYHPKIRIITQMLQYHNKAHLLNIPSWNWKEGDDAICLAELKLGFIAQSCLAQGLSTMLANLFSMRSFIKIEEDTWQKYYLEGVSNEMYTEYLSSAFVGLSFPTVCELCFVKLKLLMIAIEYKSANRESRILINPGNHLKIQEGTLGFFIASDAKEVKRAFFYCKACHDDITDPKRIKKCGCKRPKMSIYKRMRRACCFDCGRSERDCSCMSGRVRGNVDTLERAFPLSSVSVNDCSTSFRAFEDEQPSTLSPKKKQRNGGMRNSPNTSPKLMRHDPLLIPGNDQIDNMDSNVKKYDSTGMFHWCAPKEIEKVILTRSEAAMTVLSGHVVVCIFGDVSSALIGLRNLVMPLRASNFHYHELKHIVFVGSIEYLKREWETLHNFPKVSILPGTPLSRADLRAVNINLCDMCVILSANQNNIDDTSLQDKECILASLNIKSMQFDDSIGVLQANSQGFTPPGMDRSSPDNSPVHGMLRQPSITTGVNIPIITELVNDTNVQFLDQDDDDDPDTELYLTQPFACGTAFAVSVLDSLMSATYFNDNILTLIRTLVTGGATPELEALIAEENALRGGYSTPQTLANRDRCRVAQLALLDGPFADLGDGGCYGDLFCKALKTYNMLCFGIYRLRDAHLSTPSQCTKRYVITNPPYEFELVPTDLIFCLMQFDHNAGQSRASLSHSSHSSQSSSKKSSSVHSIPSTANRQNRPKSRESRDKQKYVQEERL

C[C@]12CC[C@H](O)CC1=CC[C@@H]1[C@@H]2CC[C@]2(C)C(=O)CC[C@@H]12 [DHEA, dehydroepiandrosterone]
effect of additional intravascular DHEA on PAP ([1]; 3-week CH-DHEA treated rats): did not further reduce PAP; also recorded: no effect
PAP ([1]; 3-wk CH rats, ten minutes after acute intravascular DHEA 3 mg/kg, before 34.5±1.7): 24.4±2.5 mmHg
dose dependence of PAP decrease ([1]; CH rats, intravascular, successively increasing doses up to 3 mg/kg): dose-dependent manner
effect on PAP/PAH ([1]; CH rats, single intravascular dose of DHEA 3 mg/kg): significant decrease in PAP; also recorded: significantly decreased PAH
PAP ([1]; CH-DHEA rats: oral DHEA 30 mg/kg every alternate day during 3 wk hypoxia, untreated CH 34.5±1.7): 21.7±1.1 mm Hg
decrease of PAP ([1]; CH-PAH rats, intravascular 0.03 mg/kg): ~10%
decrease in PAP ([1]; CH-PAH rats, intravascular 0.3 mg/kg): ~25%
decrease in PAP ([1]; CH-PAH rats, intravascular 3.0 mg/kg): ~45%
PAP, CH-DHEA vs control rats ([1]; after 1 or 2 wk of hypoxia exposure with oral DHEA): no difference
effect of intravascular DHEA on PAP ([1]; control animals): no effect
effect on PAP/PAH (reversal) ([1]; hypertensive CH rats, 1-wk oral DHEA 30 mg/kg every alternate day): partially but significantly reversed; also recorded: significantly decreased PAH
effect on PAP (prevention) ([1]; oral DHEA for 3 weeks during chronic hypoxia, vs CH rats): significant preventive effect; also recorded: decreased; also recorded: almost entirely prevent
effect on PAP ([1]; oral DHEA, normoxic rats): no effect
PAP ([1]; rats 3 weeks in CH, oral DHEA during the last week, no DHEA 35.9±1.9): 21±1.1 mm Hg
increase in media layer thickness compared with control rats ([2]; CH-DHEA rats, 3 weeks, CH untreated 33%): 11%
effect on PA wall remodeling (prevention) ([2]; oral DHEA 3 weeks during CH): significant protective effect; also recorded: almost entirely prevent; also recorded: prevented the PA wall remodeling
effect on PA wall remodeling (reversal) ([2]; oral DHEA during last week of 3 weeks CH): partially but significantly reversed; also recorded: decreased the PA remodeling
resting [Ca2+]i value of PASMCs ([3]; CH-DHEA rats (3 wk oral DHEA), CH 143±7, control 69.2±2.2): 90.1 ± 3.2 nM
resting [Ca2+]i value of PASMCs ([3]; DHEA from day 15 to day 21 of chronic hypoxia, untreated 143±7): 105 ± 3 nM
effect on [Ca2+]i of PASMCs ([3]; oral DHEA for 1 week): significant decrease; also recorded: decrease in [Ca^2+]i
effect on [Ca2+]i of PASMCs ([3]; oral DHEA for 3 weeks): significant decrease; also recorded: decrease in [Ca^2+]i
effect on [Ca2+]i ([4]; DHEA 100 μM, PASMCs from normoxic, normoxic-DHEA and CH-DHEA rats): did not alter
resting [Ca2+]i value ([4]; PASMCs from CH rats, 15 minute in vitro 100 μM DHEA, before 143±7): 82 ± 3 nM
effect on resting [Ca2+]i ([4]; PASMCs from CH rats, in vitro DHEA 100 μM): significant decrease; also recorded: decrease of the resting [Ca^2+]i
action on BKCa [5]: BKCa opener
